Laboratory results: article PMC8512560, “Design, Synthesis, and Antipoliferative Activities of Novel Substituted Imidazole-Thione Linked Benzotriazole Derivatives” (Molecules, 2021)
Several values for one entry are separate records, joined by “and”; a condition that tells them apart may be missing. Equal entries are not always repeated.

What was measured:
[1] = system: colchicine binding site of tubulin; test: Colchicine site competitive binding assay ([3H]colchicine); conditions: tubulin and colchicine at 1 and 5 µM
Procedure: The affinity of Benzotriazole compounds to colchicine binding site was determined using a Colchicine Site Competitive Assay kit CytoDYNAMIX Screen15 (Cytoskeleton, Inc., Denver, CO, USA) using the standard protocol of the manufacturer to determine Ki values (μM). Biotin-labelled tubulin ([…]) and the test compounds (positive control colchicine, negative control vinblastine, G-1, fluorescent G-1, or 2-ME) in a 96-well plate (final volume: 100 μL). After incubating for 2 h at 37 °C with gentle shaking, streptavidin-labelled yttrium SPA beads (80 μg in 20 μL reaction buffer, PerkinElmer, Waltham, MA) were added to each well and incubated for 30 min at 4 °C. The plates were then read on a scintillation counter (Packard Instrument, Topcount Microplate Reader) and the percentage of inhibition was calculated.

HL-60 cells [2] = test: Annexin V/PI apoptotic assay by flow cytometry; format: cell-based, human; conditions: BI9 1 µM, CA-4 concentration not given, control 1.6%
Procedure: Apoptotic cell death was detected by flow cytometry using Annexin V and propidium iodide (PI). HL-60 Cells were seeded in 6 well plated at density of 1 × 10^5 cells/mL and treated with vehicle (0.1% (v/v) EtOH), positive control (CA-4) or compound BI9 (1 µM) for 48 and 72 h. Cells were then harvested and prepared for flow cytometric analysis. Cells were washed in 1X binding buffer ([…] binding buffer: 0.1M HEPES, pH 7.4; 1.4 M NaCl; 25 mM CaCl2 diluted in dH2O) and incubated in the dark for 30 min on ice in Annexin V-containing binding buffer [1:100]. Cells were then washed once in binding buffer and then re-suspended in PI-containing binding buffer [1:1000]. Samples were analysed immediately using the BD accuri flow cytometer and prism software for analysis the data. Four populations are produced during the assay Annexin V and PI negative (Q4, healthy cells), Annexin V positive and PI negative (Q3, early apoptosis), Annexin V and PI positive (Q2, late apoptosis) and Annexin V negative and PI positive (Q1, necrosis).

BAX = test: Western blot of BAX expression in HL-60 cells; format: cell-based, human; conditions: HL-60, 0.5 and 1 µM, compared to the untreated group
Procedure: HL-60 cells were seeded at a density of 1 × 10^5 cells/flask in T25 flasks. […] HL-60 cells were harvested in RIPA buffer supplemented with protease inhibitors (Roche Diagnostics), phosphatase inhibitor cocktail 2 (Sigma-Aldrich), and phosphatase inhibitor cocktail 3 (Sigma-Aldrich). Equal quantities of protein (as determined by a BCA assay) were resolved by SDS-PAGE (12%) followed by transfer to PVDF membranes. Membranes were blocked in 5% bovine serum albumin/TBST for 1 h. Membranes were incubated in the relevant primary antibodies at 4 °C overnight, washed with TBST, and incubated in horseradish peroxidase conjugated secondary antibody for 1 h at rt and washed again. Western blot analysis was performed as described above using antibodies directed against BAX [1:1000] (Cell Signaling Technology), PARP [1:500] (Cell Signaling Technology) and Bcl-2 [1:500] (Cell Signaling Technology) followed by incubation with a horseradish peroxidase-conjugated anti-mouse antibody [1:2000] (Promega, Madison, WI, USA). All blots were probed with β-actin antibody [1:5000] (Sigma) to confirm equal loading. Proteins were detected using enhanced chemiluminescent Western blot detection (Clarity Western ECL substrate) (Bio Rad) on the ChemiDoc MP System (Bio Rad). Experiments were performed on three independent occasions.

[3] = system: MCF-7, HL-60 and HCT-116 cancer cell lines; test: MTT viability assay, values pooled over the cancer cell lines; format: cell-based, human; conditions: Homo sapiens, MCF-7, HL-60 and HCT-116; MTT; read-out: IC50 values range over the three cancer cell lines
Procedure: (§1) All the human tumour cell lines MCF-7, HL-60, HCT-116, and HUVEC were cultured in Dulbecco’s Modified Eagle’s Medium (DMEM) with 10% fetal bovine serum, 2 mM L-glutamine and 100 µg/mL penicillin/streptomycin. Cells were maintained at 37 °C in 5% CO2 in a humidified incubator. All cells were sub-cultured three times/week by trypsinization using TrypLE Express (1X).
(§2) The Benzotriazole compounds were evaluated for antiproliferative effect using the MTT viability assay of various cancer cell lines (MCF-7, HCT-116 and HL-60) and the normal human umbilical vein endothelial cell line (HUVEC) to calculate the relative IC50 values for each compound. Cells were seeded in triplicate in 96-well plates at a density of 10 × 10^3 cells/mL in a total volume of 200 µL per well. 0.1% of DMSO was used as a vehicle control. After this time, they were treated with 2 µL test compound which had been pre-prepared as stock solutions in ethanol to furnish the concentration range of study, 10 nM to 100 µM, and re-incubated for a further 72 h. The culture medium was then removed, and the cells washed with 100 µL phosphate buffered saline (PBS) and 50 µL MTT added, to reach a final concentration of 1 mg/mL MTT added. Cells were incubated for 2 h in darkness at 37 °C. At this point solubilisation was begun through the addition of […] DMSO and the cells maintained at room temperature in darkness for 20 min to ensure thorough colour diffusion before reading the absorbance. Plates were incubated for 72 h at 37 °C + 5% CO2. The MTT (5 mg/mL in PBS) was added and incubated for another 4 h, and the optical density was detected with a microplate reader at 570 nm. Results were expressed as percentage viability relative to vehicle control (100%). Dose response curves were plotted and IC50 values (concentration of drug resulting in 50% reduction in cell survival) were obtained using the commercial software package Prism (GraphPad Software, Inc., La Jolla, CA, USA). All the experiments were repeated in at least three independent experiments.

[4] = system: HUVEC human umbilical vein endothelial cell line; test: MTT viability assay, normal HUVEC cells; format: cell-based; conditions: 72 h, mean ± SD of three independent experiments
Procedure: as §1, §2

HL-60 cells [5] = test: Cell cycle analysis by PI flow cytometry; format: cell-based, human; conditions: 1 µM
Procedure: HL-60 cells were seeded at a density of 1 × 10^5 cells/well in 6-well plates and treated with CA-4 and compound BI9 (1 µM) for 48 and 72 h. The cells were collected by trypsinization and centrifuged at 800× g for 15 min. Cells were washed twice with ice-cold PBS and fixed in ice-cold 70% ethanol overnight at −20 °C. Fixed cells were centrifuged at 800× g for 15 min and stained with 50 μg/mL of PI, containing 50 μg/mL of DNase-free RNase A, at 37 °C for 30 min. The DNA content of cells (10,000 cells/experimental group) was analysed by flow cytometer at 488 nm using a FACSCalibur flow cytometer (BD Biosciences, San Jose, CA, USA) and all data were recorded and analysed using the CellQuest Software (Becton-Dickinson).

S=c1[nH]c(-n2nnc3ccccc32)cn1-c1ccc(Cl)cc1Cl [BI9, 4-(1H-Benzo[d][1,2,3]Triazol-1-yl)-1-(2,4-Dichlorophenyl)-1H-Imidazole-2(3H)-Thione]
Colchicine Binding % ± SD (inhibition of [3H]colchicine binding), 1 µM Drug ([1]; 1 µM drug): 49% and 49.38 ± 2% | Colchicine Binding % ± SD (inhibition of [3H]colchicine binding), 5 µM Drug ([1]; 5 µM drug): 66% and 66.57 ± 2% | Total fraction of early and late apoptotic cells (Annexin V positive) (HL-60 cells [2]; 48 h): 21.5% | Average fraction of Annexin V-staining positive cells (total apoptotic cells) (HL-60 cells [2]; 72 h): 19.2% | Expression level of pro-apoptotic Bax protein (BAX): significantly up-regulated | IC50 [3]: 0.4 to 3.3 µM | IC50 [4]: > 100 µM | Proportion of HL-60 cells in G2/M phase (HL-60 cells [5]; 48 h): 32.3% | Population in the sub-G1 phase (apoptosis) (HL-60 cells [5]; 48 h, untreated cells 1.5%): 23.1% | Proportion of HL-60 cells in G2/M phase (HL-60 cells [5]; 72 h): 35.1% | Population in the sub-G1 phase (apoptosis) (HL-60 cells [5]; 72 h, untreated cells 3.5%): 27.5%
